Laboratory results reported in publication PMC5513037, “Examining the influence of specificity ligands and ATP-competitive ligands on the overall effectiveness of bivalent kinase inhibitors” (Proteome Science, 2017).
pIC50: −log10 of the molar value.

Assays:
Assay in all cases: KAM-matrix competition in K562 lysate;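 on 0.001 uM KAM: median log10 fold change of treatment over DMSO control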;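 on 0.01 uM KAM: median log10 fold change of treatment over DMSO control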;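 on 0.1 uM KAM: median log10 fold change of treatment over DMSO control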;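 on 1 uM KAM: median log10 fold change of treatment over DMSO control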;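 on 10 uM KAM: median log10 fold change of treatment over DMSO control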
Assay type in all cases: binding
CAMK2G = biological target: T1, CAMK2G (Homo sapiens, UniProt Q13555);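 on 0.001 uM KAM: median log10 fold change of treatment over DMSO control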;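 on 0.01 uM KAM: median log10 fold change of treatment over DMSO control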;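 on 0.1 uM KAM: median log10 fold change of treatment over DMSO control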;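 on 1 uM KAM: median log10 fold change of treatment over DMSO control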;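 on 10 uM KAM: median log10 fold change of treatment over DMSO control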
T1 construct: endogenous in cells; host or cells: K562
T1 sequence (Q13555 whole entry): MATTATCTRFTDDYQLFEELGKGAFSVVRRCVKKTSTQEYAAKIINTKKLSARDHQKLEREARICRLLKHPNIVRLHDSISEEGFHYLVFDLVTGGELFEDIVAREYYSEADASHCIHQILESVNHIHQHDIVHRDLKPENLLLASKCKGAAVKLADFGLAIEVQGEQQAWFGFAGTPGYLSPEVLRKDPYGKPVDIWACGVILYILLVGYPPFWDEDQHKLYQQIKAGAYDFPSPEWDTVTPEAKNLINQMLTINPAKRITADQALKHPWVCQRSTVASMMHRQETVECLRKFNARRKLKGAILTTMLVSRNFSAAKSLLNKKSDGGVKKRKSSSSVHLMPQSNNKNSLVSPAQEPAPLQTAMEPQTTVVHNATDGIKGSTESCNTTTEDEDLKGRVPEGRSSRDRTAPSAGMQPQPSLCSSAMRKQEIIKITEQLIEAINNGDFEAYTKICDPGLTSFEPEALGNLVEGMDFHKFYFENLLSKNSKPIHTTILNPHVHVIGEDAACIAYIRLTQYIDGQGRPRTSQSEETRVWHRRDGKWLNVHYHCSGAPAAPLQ
Protocol: (§1) Supplement 12953_2017_125_MOESM1_ESM.zip/MS_Supp Info.xlsx, sheet "KAM" | column: 10 uM KAM; 1 uM KAM; 0.1 uM KAM; 0.01 uM KAM; 0.001 uM KAM; RB50

ULK2 = biological target: T2, ULK2 (Homo sapiens, UniProt Q8IYT8);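 on 0.001 uM KAM: median log10 fold change of treatment over DMSO control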;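 on 0.01 uM KAM: median log10 fold change of treatment over DMSO control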;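 on 0.1 uM KAM: median log10 fold change of treatment over DMSO control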;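 on 1 uM KAM: median log10 fold change of treatment over DMSO control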;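 on 10 uM KAM: median log10 fold change of treatment over DMSO control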
T2 construct: endogenous in cells; host or cells: K562
T2 sequence (Q8IYT8 1-1036): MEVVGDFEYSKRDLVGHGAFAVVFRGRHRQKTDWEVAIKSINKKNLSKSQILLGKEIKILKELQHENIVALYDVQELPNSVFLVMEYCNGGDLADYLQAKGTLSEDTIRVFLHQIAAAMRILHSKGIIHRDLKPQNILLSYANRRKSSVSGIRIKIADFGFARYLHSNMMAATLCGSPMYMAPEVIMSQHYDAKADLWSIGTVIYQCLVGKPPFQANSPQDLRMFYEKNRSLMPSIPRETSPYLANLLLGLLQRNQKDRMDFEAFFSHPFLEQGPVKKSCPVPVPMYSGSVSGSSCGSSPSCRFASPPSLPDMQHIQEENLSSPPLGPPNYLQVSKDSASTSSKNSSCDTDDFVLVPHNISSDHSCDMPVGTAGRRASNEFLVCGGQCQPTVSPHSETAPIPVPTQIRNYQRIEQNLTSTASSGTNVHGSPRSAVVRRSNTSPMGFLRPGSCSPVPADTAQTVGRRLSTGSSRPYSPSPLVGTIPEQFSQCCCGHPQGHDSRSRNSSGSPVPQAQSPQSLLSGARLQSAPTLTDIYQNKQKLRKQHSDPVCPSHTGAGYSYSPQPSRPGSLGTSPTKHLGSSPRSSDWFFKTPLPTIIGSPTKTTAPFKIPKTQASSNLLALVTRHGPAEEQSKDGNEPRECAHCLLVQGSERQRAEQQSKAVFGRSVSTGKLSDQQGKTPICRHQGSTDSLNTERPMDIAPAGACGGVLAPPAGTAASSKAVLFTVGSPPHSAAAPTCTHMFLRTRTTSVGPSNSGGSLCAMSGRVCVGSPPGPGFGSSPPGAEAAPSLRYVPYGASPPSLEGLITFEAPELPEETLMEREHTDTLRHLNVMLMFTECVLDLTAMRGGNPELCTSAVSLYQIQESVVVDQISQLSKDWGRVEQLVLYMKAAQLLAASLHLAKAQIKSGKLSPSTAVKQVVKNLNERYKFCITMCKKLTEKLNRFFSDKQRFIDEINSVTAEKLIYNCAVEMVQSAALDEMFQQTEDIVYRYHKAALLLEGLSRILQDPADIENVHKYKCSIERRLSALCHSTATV
Protocol: as §1

HIPK2 = biological target: T3, HIPK2 (Homo sapiens, UniProt Q9H2X6)
T3 construct: endogenous in cells; host or cells: K562 cell lysate
T3 sequence (Q9H2X6 whole entry): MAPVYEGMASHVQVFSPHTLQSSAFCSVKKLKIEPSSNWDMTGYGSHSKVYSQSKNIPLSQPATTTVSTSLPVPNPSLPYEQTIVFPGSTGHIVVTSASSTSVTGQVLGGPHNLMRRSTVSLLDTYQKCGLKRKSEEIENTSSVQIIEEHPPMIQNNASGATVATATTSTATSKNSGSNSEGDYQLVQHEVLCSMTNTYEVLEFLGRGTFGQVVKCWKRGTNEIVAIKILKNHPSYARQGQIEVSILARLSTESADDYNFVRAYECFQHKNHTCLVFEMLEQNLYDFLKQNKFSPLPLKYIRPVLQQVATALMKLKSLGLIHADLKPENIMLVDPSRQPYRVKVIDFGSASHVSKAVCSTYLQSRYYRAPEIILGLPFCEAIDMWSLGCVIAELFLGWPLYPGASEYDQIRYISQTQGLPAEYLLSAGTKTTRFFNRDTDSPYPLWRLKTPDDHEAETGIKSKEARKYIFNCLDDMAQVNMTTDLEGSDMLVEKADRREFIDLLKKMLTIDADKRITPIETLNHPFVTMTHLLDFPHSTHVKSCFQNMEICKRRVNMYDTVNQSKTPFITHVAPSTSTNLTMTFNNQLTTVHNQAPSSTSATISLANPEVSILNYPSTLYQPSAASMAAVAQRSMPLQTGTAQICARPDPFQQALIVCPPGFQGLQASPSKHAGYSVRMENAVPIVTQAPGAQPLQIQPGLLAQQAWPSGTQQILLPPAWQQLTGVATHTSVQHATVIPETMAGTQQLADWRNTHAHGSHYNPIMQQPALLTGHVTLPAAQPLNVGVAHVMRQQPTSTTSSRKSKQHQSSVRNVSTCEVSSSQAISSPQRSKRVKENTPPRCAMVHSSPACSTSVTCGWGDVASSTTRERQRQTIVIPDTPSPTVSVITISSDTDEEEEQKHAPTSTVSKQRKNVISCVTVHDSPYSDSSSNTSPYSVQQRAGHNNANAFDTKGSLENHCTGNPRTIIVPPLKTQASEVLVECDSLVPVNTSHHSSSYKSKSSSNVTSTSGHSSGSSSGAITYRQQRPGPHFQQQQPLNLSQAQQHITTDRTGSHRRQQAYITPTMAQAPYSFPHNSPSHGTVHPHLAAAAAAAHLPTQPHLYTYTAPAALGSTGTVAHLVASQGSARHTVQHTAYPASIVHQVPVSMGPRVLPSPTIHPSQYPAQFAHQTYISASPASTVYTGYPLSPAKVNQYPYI
Protocol: as §1

TTK = biological target: T4, TTK (Homo sapiens, UniProt P33981);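 on 0.001 uM KAM: median log10 fold change of treatment over DMSO control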;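 on 0.01 uM KAM: median log10 fold change of treatment over DMSO control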;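 on 0.1 uM KAM: median log10 fold change of treatment over DMSO control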;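 on 1 uM KAM: median log10 fold change of treatment over DMSO control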;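 on 10 uM KAM: median log10 fold change of treatment over DMSO control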
T4 construct: endogenous in cells; host or cells: K562
T4 sequence (P33981 1-857): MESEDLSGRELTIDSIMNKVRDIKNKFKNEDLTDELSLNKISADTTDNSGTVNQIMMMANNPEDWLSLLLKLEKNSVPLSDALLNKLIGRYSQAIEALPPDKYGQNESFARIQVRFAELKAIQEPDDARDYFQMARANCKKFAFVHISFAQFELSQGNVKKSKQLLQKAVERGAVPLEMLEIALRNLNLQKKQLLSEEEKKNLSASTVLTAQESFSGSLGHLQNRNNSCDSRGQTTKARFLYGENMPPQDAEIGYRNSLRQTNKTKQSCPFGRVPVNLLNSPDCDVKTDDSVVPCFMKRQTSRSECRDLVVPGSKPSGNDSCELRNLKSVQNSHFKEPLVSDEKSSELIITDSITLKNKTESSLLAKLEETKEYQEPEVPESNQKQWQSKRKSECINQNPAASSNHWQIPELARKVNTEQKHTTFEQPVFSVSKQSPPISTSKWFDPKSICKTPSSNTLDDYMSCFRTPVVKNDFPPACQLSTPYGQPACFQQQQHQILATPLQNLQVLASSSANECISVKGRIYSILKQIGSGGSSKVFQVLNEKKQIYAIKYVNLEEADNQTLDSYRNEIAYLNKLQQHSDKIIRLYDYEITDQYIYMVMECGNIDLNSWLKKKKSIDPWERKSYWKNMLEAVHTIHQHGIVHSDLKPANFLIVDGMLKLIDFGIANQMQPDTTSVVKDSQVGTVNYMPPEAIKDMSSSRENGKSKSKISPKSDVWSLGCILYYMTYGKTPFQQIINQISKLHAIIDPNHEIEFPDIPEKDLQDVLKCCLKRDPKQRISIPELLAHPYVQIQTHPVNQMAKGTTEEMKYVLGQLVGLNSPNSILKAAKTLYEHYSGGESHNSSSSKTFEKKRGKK
Protocol: as §1

[1] = KAM 0.001-10 uM, read-out: RB50 (the source's name)

With `N#CCc1ccc(Nc2nc(NCCCN)cc(Nc3cc(C4CC4)[nH]n3)n2)cc1` [KAM] the pIC50 (CAMK2G; [1]) was under 5.00, the “0.001 uM KAM” value (CAMK2G; relative to 0 uM KAM = 0) was -0.0014 and the “0.01 uM KAM” value (CAMK2G; relative to 0 uM KAM = 0) was 0.01571. For the same compound, the “0.1 uM KAM” value (CAMK2G; relative to 0 uM KAM = 0) was -0.03365, the “1 uM KAM” value (CAMK2G; relative to 0 uM KAM = 0) was -0.07588 and the “10 uM KAM” value (CAMK2G; relative to 0 uM KAM = 0) was -0.2109. The pIC50 (ULK2; [1]) was under 5.00, the “0.001 uM KAM” value (ULK2; relative to 0 uM KAM = 0) was -0.004094 and the “0.01 uM KAM” value (ULK2; relative to 0 uM KAM = 0) was -0.0009308. The “0.1 uM KAM” value (ULK2; relative to 0 uM KAM = 0) was 0.03838, the “1 uM KAM” value (ULK2; relative to 0 uM KAM = 0) was 0.1564 and the “10 uM KAM” value (ULK2; relative to 0 uM KAM = 0) was 0.04645. For the same compound, the “median Log10 fold change” value (HIPK2; 0.001 uM KAM) was -0.003211, the “median Log10 fold change” value (HIPK2; 0.01 uM KAM) was 0.02239 and the “median Log10 fold change” value (HIPK2; 0.1 uM KAM) was -0.07372. For the same compound, the “median Log10 fold change” value (HIPK2; 1 uM KAM) was -0.2033, the “median Log10 fold change” value (HIPK2; 10 uM KAM) was -0.3492 and the pIC50 (HIPK2; read-out: RB50 (the source's name)) was 5.37. The pIC50 (TTK; [1]) was under 5.00, the “0.001 uM KAM” value (TTK; relative to 0 uM KAM = 0) was -0.02414 and the “0.01 uM KAM” value (TTK; relative to 0 uM KAM = 0) was 0.009793. For the same compound, the “0.1 uM KAM” value (TTK; relative to 0 uM KAM = 0) was -0.08807, the “1 uM KAM” value (TTK; relative to 0 uM KAM = 0) was -0.1446 and the “10 uM KAM” value (TTK; relative to 0 uM KAM = 0) was -0.2103.
